Values quoted from earlier work, collected in US20180177198A1, “PEDICULICIDE FORMULATION BASED ON EUCALYPTUS GLOBULUS ESSENTIAL OIL” (UNIVERSIDAD DE CONCEPCION, priority 2015, published 2018).

Columns and labels:
[1] = tested on: lice
[2] = tested on: Pediculus humanus capitis resistant to permethrin
[3] = tested on: P. capitis
[4] = not given; remark: listed apart in the source
[5] = tested on: pediculosis; conditions: in vivo

With I-phellandrene as the molecule, how does the “pediculicidal effectiveness compared with phenothrin or pyrethrum” value [1] read?
Its value is “as effective as”.

For α-dodelactone, which repellent activity [2] is on record?
Its repellent activity is “significant repellent activity”.

For CC1=CCC2CC1C2(C)C (stereo not drawn) [(−) α-pinene], which “pediculicidal effectiveness compared with phenothrin or pyrethrum” value [1] is on record?
Its value is “as effective as”.

For CC1=CC=C(C(C)C)CC1 [α-terpinene], which “pediculicidal effectiveness compared with phenothrin or pyrethrum” value [1] is on record?
Its value is “as effective as”.

Which results are given for Cl[C@H]1[C@H](Cl)[C@@H](Cl)[C@@H](Cl)[C@H](Cl)[C@H]1Cl [Lindane, gamma benzene hexachloride]?
ovicidal activity [3]: lacks ovicidal activity; average life in the blood stream (in vivo): 24 h; absorbed by passage into the blood stream (topical use): Approximately 10%; toxicity range, can be lethal ([4]; adults): 28 g; dose causing respiratory depression ([4]; children below the age of 4, at 1%): 5 mL

Which “average life (elimination after percutaneous absorption)” value (in vivo) does the source give for c1ccc2[nH]c(-c3cscn3)nc2c1 [Thiabendazole] here?
The value was 70 min.

With CC12CCC(CC1)C(C)(C)O2 [1.8-cineol] as the molecule, how does the “pediculicidal effectiveness compared with phenothrin or pyrethrum” value [1] read?
Its value is “as effective as”.

Which “effectiveness in treatment of pediculosis” value [5] does the source give for c1ccc([C@H]2CN3CCSC3=N2)cc1 [Levamisol] here?
Its value is 19%.

Which “pediculicidal effectiveness compared with phenothrin or pyrethrum” value [1] does the source give for C=C1C(O)CC2CC1C2(C)C (centres unmarked) [(E)-pinocarveol] here?
The value was “as effective as”.

Which “pediculicidal effectiveness compared with phenothrin or pyrethrum” value [1] does the source give for CC1=CC[C@@H](C(C)(C)O)CC1 [1-α-terpineol] here?
Its value is “as effective as”.
